# Assay results published in publication PMC9518264, “Design and synthesis of novel quinazolinone-based derivatives as EGFR inhibitors with antitumor activity” (Journal of Enzyme Inhibition and Medicinal Chemistry, 2022).
# Tests used:
# OVCAR-3 = experiment: NCI 60 cell line antiproliferative screening (SRB), Ovarian cancer; conditions: Homo sapiens, OVCAR-3, read-out: growth inhibition % (GI%)
# PC-3 = experiment: cells; format: cell-based; conditions: Homo sapiens; PC-3; 10 μM; read-out: growth inhibition % (GI%)
# NCI-H322M = experiment: cells; format: cell-based; conditions: Homo sapiens, 10 μM, read-out: growth inhibition % (GI%)
# OVCAR-8 = experiment: cells; format: cell-based; conditions: Homo sapiens; OVCAR-8; 10 μM; read-out: growth inhibition % (GI%)
# MCF7 = experiment: cells; format: cell-based; conditions: Homo sapiens; MCF7; 10 μM; read-out: growth inhibition % (GI%)
# COLO-205 = experiment: cells; format: cell-based; conditions: Homo sapiens; COLO-205; 10 μM; read-out: growth inhibition % (GI%)
# MDA-MB-435 = experiment: cells; format: cell-based; conditions: Homo sapiens; MDA-MB-435; 10 μM; read-out: growth inhibition % (GI%)
# SF-268 = experiment: cells; format: cell-based; conditions: Homo sapiens; SF-268; 10 μM; read-out: growth inhibition % (GI%)
# K-562 = experiment: cells; format: cell-based; conditions: Homo sapiens, K562; K-562; 10 μM; read-out: growth inhibition % (GI%)
# SF-539 = experiment: cells; format: cell-based; conditions: Homo sapiens; SF-539; 10 μM; read-out: growth inhibition % (GI%)
# NCI-H522 = experiment: cells; format: cell-based; conditions: Homo sapiens; NCI-H522; 10 μM; read-out: growth inhibition % (GI%)
# EKVX = experiment: cells; format: cell-based; conditions: Homo sapiens, 10 μM, read-out: growth inhibition % (GI%)
# A549/ATCC = experiment: cells; format: cell-based; conditions: Homo sapiens; A549/ATCC; 10 μM; read-out: growth inhibition % (GI%)
# UACC-257 = experiment: cells; format: cell-based; conditions: Homo sapiens; UACC-257; 10 μM; read-out: growth inhibition % (GI%)
# SR = experiment: cells; format: cell-based; conditions: Homo sapiens, 10 μM, read-out: growth inhibition % (GI%)
# UACC-62 = experiment: cells; format: cell-based; conditions: Homo sapiens; UACC-62; 10 μM; read-out: growth inhibition % (GI%)
# NCI/ADR-RES = experiment: cells; format: cell-based; conditions: Homo sapiens, 10 μM, read-out: growth inhibition % (GI%)
# SK-MEL-5 = experiment: cells; format: cell-based; conditions: Homo sapiens; SK-MEL-5; 10 μM; read-out: growth inhibition % (GI%)
# T-47D = experiment: cells; format: cell-based; conditions: Homo sapiens, T47D; T-47D; 10 μM; read-out: growth inhibition % (GI%)
# SF-295 = experiment: cells; format: cell-based; conditions: Homo sapiens; SF-295; 10 μM; read-out: growth inhibition % (GI%)
# MOLT-4 = experiment: cells; format: cell-based; conditions: Homo sapiens; MOLT-4; 10 μM; read-out: growth inhibition % (GI%)
# NCI-H460 = experiment: cells; format: cell-based; conditions: Homo sapiens; NCI-H460; 10 μM; read-out: growth inhibition % (GI%)
# HT29 = experiment: cells; format: cell-based; conditions: Homo sapiens, HT-29; HT29; 10 μM; read-out: growth inhibition % (GI%)
# SNB-19 = experiment: cells; format: cell-based; conditions: Homo sapiens; SNB-19; 10 μM; read-out: growth inhibition % (GI%)
# KM12 = experiment: cells; format: cell-based; conditions: Homo sapiens; KM12; 10 μM; read-out: growth inhibition % (GI%)
# HCT-15 = experiment: cells; format: cell-based; conditions: Homo sapiens; HCT-15; 10 μM; read-out: growth inhibition % (GI%)
# HCC-2998 = experiment: cells; format: cell-based; conditions: Homo sapiens; HCC-2998; 10 μM; read-out: growth inhibition % (GI%)
# HCT-116 = experiment: cells; format: cell-based; conditions: Homo sapiens; HCT-116; 10 μM; read-out: growth inhibition % (GI%)
# SK-OV-3 = experiment: cells; format: cell-based; conditions: Homo sapiens; SK-OV-3; 10 μM; read-out: growth inhibition % (GI%)
# SK-MEL-2 = experiment: cells; format: cell-based; conditions: Homo sapiens; SK-MEL-2; 10 μM; read-out: growth inhibition % (GI%)
# HS 578T = experiment: cells; format: cell-based; conditions: Homo sapiens; HS 578T; 10 μM; read-out: growth inhibition % (GI%)
# OVCAR-4 = experiment: cells; format: cell-based; conditions: Homo sapiens; OVCAR-4; 10 μM; read-out: growth inhibition % (GI%)
# BT-549 = experiment: cells; format: cell-based; conditions: Homo sapiens; BT-549; 10 μM; read-out: growth inhibition % (GI%)
# SNB-75 = experiment: cells; format: cell-based; conditions: Homo sapiens; SNB-75; 10 μM; read-out: growth inhibition % (GI%)
# MALME-3M = experiment: cells; format: cell-based; conditions: Homo sapiens; MALME-3M; 10 μM; read-out: growth inhibition % (GI%)
# [1] = system: panel of 60 tumour cell lines; experiment: NCI 60 cell line antiproliferative screening (SRB), whole panel or subpanels (means, ranges, words); format: cell-based, human; conditions: Homo sapiens, 60 cell, mean over the cell line panel; 10 μM; read-out: Mean growth inhibition % (mean GI%)
# U251 = experiment: cells; format: cell-based; conditions: Homo sapiens, U-251; U251; 10 μM; read-out: growth inhibition % (GI%)
# LOX IMIV = experiment: cells; format: cell-based; conditions: Homo sapiens, 60 cell; LOX IMIV; 10 μM; read-out: growth inhibition % (GI%)
# RPMI-8226 = experiment: cells; format: cell-based; conditions: Homo sapiens; RPMI-8226; 10 μM; read-out: growth inhibition % (GI%)
# SN12C = experiment: cells; format: cell-based; conditions: Homo sapiens, 10 μM, read-out: growth inhibition % (GI%)
# UO-31 = experiment: cells; format: cell-based; conditions: Homo sapiens; UO-31; 10 μM; read-out: growth inhibition % (GI%)
# NCI-H226 = experiment: cells; format: cell-based; conditions: Homo sapiens; NCI-H226; 10 μM; read-out: growth inhibition % (GI%)
# A498 = experiment: cells; format: cell-based; conditions: Homo sapiens; A498; 10 μM; read-out: growth inhibition % (GI%)
# IGROV1 = experiment: cells; format: cell-based; conditions: Homo sapiens, IGROV-1; IGROV1; 10 μM; read-out: growth inhibition % (GI%)
# CCRF-CEM = experiment: cells; format: cell-based; conditions: Homo sapiens, 10 μM, read-out: growth inhibition % (GI%)
# TK-10 = experiment: cells; format: cell-based; conditions: Homo sapiens; TK-10; 10 μM; read-out: growth inhibition % (GI%)
# HOP-92 = experiment: cells; format: cell-based; conditions: Homo sapiens; HOP-92; 10 μM; read-out: growth inhibition % (GI%)
smiles,measurement,setting,value
"O=C(CSc1nc2ccccc2c(=O)n1-c1ccccc1)NN=Cc1ccc(N2CCCCC2)cc1 [6g, 2-((4-oxo-3-phenyl-3,4-dihydroquinazolin-2-yl)thio)-N'-(4-(piperidin-1-yl)benzylidene) acetohydrazide]",inhibition at 10 µM,OVCAR-3,< 15%
same,inhibition at 10 µM,PC-3,18.5%
same,inhibition at 10 µM,NCI-H322M,< 15%
same,inhibition at 10 µM,OVCAR-8,< 15%
same,inhibition at 10 µM,MCF7,16.2%
same,inhibition at 10 µM,COLO-205,< 15%
same,inhibition at 10 µM,MDA-MB-435,< 15%
same,inhibition at 10 µM,SF-268,< 15%
same,inhibition at 10 µM,K-562,26.8%
same,inhibition at 10 µM,SF-539,< 15%
same,inhibition at 10 µM,NCI-H522,15.3%
same,inhibition at 10 µM,EKVX,20.4%
same,inhibition at 10 µM,A549/ATCC,15.1%
same,inhibition at 10 µM,UACC-257,< 15%
same,inhibition at 10 µM,SR,24.7%
same,inhibition at 10 µM,UACC-62,< 15%
same,inhibition at 10 µM,NCI/ADR-RES,< 15%
same,inhibition at 10 µM,SK-MEL-5,< 15%
same,inhibition at 10 µM,T-47D,< 15%
same,inhibition at 10 µM,SF-295,< 15%
same,inhibition at 10 µM,MOLT-4,28.5%
same,inhibition at 10 µM,NCI-H460,< 15%
same,inhibition at 10 µM,HT29,< 15%
same,inhibition at 10 µM,SNB-19,< 15%
same,inhibition at 10 µM,KM12,< 15%
same,inhibition at 10 µM,HCT-15,16.2%
same,inhibition at 10 µM,HCC-2998,< 15%
same,inhibition at 10 µM,HCT-116,15.5%
same,inhibition at 10 µM,SK-OV-3,< 15%
same,inhibition at 10 µM,SK-MEL-2,< 15%
same,inhibition at 10 µM,HS 578T,< 15%
same,inhibition at 10 µM,OVCAR-4,< 15%
same,inhibition at 10 µM,BT-549,< 15%
same,inhibition at 10 µM,SNB-75,19.9%
same,inhibition at 10 µM,MALME-3M,< 15%
same,inhibition at 10 µM,[1],4.28%
same,inhibition at 10 µM,U251,< 15%
same,inhibition at 10 µM,LOX IMIV,< 15%
same,inhibition at 10 µM,RPMI-8226,17.6%
same,inhibition at 10 µM,SN12C,< 15%
same,inhibition at 10 µM,UO-31,23.3%
same,inhibition at 10 µM,NCI-H226,< 15%
same,inhibition at 10 µM,A498,< 15%
same,inhibition at 10 µM,IGROV1,< 15%
same,inhibition at 10 µM,CCRF-CEM,< 15%
same,inhibition at 10 µM,TK-10,< 15%
same,inhibition at 10 µM,HOP-92,19.5%
